Molecules are shown by their SMILES. “Also recorded” adds a separate entry of the source.

For this assay, the system named is chemotherapy-induced peripheral neuropathic pain in rats. Put plainly: Paclitaxel-induced peripheral neuropathic pain, paw withdrawal threshold with von Frey filaments, single administration (Example 5). Format: in vivo, Male Sprague Dawley rats. The note with it: for Paw withdrawal threshold (PWT) compared to vehicle (in words): Day 14; for Paw withdrawal threshold (PWT), Day 14 Avg., Mean: i.p., 2 hours prior to test, Count 12. On the procedure:
Assessment of neuropathic pain using von Frey filaments was performed. Rats were administered paclitaxel (2 mg/kg) on four alternate days (days 1, 3, 5 and 7). Baseline and post treatment paw withdrawal thresholds (PWT) were evaluated using von Frey filaments (Semmes-Weinstein filaments, Stoelting, Wood Dale, Ill., USA) of varying stiffness (0.4, 0.7, 1.2, 2.0, 3.6, 5.5, 8.5, 10, 15, 26 g). Animals were placed on a perforated metallic platform and allowed to acclimate to their surroundings for a minimum of 15 minutes before each test session. Each filament was presented perpendicular to the plantar surface with sufficient force to cause slight buckling against the paw, and then held until a positive response is noted (paw sharply withdrawn). As described by Chaplan, S. R. et al. “Qualitative Assessment of Tactile Allodynia in the Rat Paw” Journal of Neuroscience Methods, 53 (1994), 55-63 (“Chaplan”), once the threshold was crossed, the 2 responses straddling the threshold are retrospectively designated as the first 2 responses. Four additional responses were measured to stimuli varied sequentially up or down based on the animal's response. The 6 responses in the immediate vicinity of the threshold were used to calculate the 50% g threshold: 50% g threshold=(10^[Xf+k*d])/10000
Xf is the final filament used (in log units). The parameter k is from the Appendix 1 in Chaplan and was determined by the pattern of the von Frey responses (e.g. OXOXOX where ‘O’ indicates no response and ‘X’ denotes a withdrawal). The parameter d is the difference between stimuli which Chaplan used a constant d=0.224. To accommodate for the use of the 10 g and 26 g filaments, the exact difference between stimuli were used.
Male Sprague Dawley rats (from Envigo, Ind., USA) were used in the study. Animals were received at approximately 250 g and housed 3 per cage upon arrival. All rats were examined, handled, and weighed prior to initiation of the study to assure adequate health and suitability. During the course of the study, 12 h/12 h light/dark cycles was maintained. The room temperature was be maintained between 20 and 23° C. with a relative humidity maintained around 50%. Chow and water was provided ad libitum for the duration of the study. All testing was performed during the animal's light cycle phase. Every effort was made to minimize suffering of animals. Rats with baseline PWT less than 12 g were not included in the study. Rats were balanced by body weight and by their pre-paclitaxel PWT values. ANOVA found no significant differences between the treatment groups.
Paclitaxel was purchased from Biolyse Pharma (Ontario, Canada) and was injected i.p. (2 mg/kg) on four alternate days (day 1, 3, 5 and 7) for a total of 4 injections at a dose volume of 1 mL/kg.
Rats were subsequently balanced and assigned to treatment groups based on post-paclitaxel PWT values. On test day, PWT was assessed two hours post vehicle or MIN-117 injections and one hour after gabapentin administration.
Gabapentin was purchased from Toronto Research Chemicals and was dissolved in saline and administered orally 60 minutes prior to test at a dose volume of 1 mL/kg. MIN-117 (1, 3 and 10 mg/kg), formulated in 0.5% (w/v) hydroxypropylmethylcellulose (HPMC, Sigma-Aldrich), was administered i.p. at a dose volume of 1 mL/kg. MIN-117 was administered 2 hours prior to test.

Consider `Cc1nnc(-c2cc3c(OC[C@@H](O)CN4CCC(c5ccc(Cl)c(Cl)c5)CC4)cccc3o2)o1.Cl` [MIN-117, (2S)-1-(4-(3,4-dichlorophenyl)piperidin-1-yl)-3-((2-(5-methyl-1,3,4-oxadiazol-2-yl)benzofuran-4-yl)oxy)propan-2-ol hydrochloride], for which the “Paw withdrawal threshold (PWT) compared to vehicle (in words)” value is, setting by setting: (1 mg/kg i.p. 2 hours prior to test) “did not show a significant increase in PWT”; (3 mg/kg i.p. 2 hours prior to test, hydrochloride, 3 mg/kg) “significant increase in PWT; also recorded: significantly reduced neuropathic pain”; (10 mg/kg i.p. 2 hours prior to test, hydrochloride, 10 mg/kg) “significant increase in PWT; also recorded: significantly reduced neuropathic pain”. Moreover, the “Mean Diff. of Day 14 Avg. PWT, Fisher's PLSD” value is, setting by setting: (Paclitaxel + Gabapentin (100 mg/kg), Paclitaxel + MIN-117 (1 mg/kg)) 14.200; (Paclitaxel + Gabapentin (100 mg/kg), Paclitaxel + MIN-117 (3 mg/kg)) 12.775; (Paclitaxel + Gabapentin (100 mg/kg), Paclitaxel + MIN-117 (10 mg/kg)) 11.802; (Paclitaxel + MIN-117 (1 mg/kg), Paclitaxel + MIN-117 (3 mg/kg)) −1.425; (Paclitaxel + MIN-117 (1 mg/kg), Paclitaxel + MIN-117 (10 mg/kg)) −2.399; (Paclitaxel + Vehicle, Paclitaxel + MIN-117 (1 mg/kg)) −1.558. Also, the “Mean Diff. of Day 14 Avg. PWT, Fisher's PLSD” value is listed as −2.984 (Paclitaxel + Vehicle, Paclitaxel + MIN-117 (3 mg/kg)) and −3.957 (Paclitaxel + Vehicle, Paclitaxel + MIN-117 (10 mg/kg)). Besides, the “Paw withdrawal threshold (PWT), Day 14 Avg., Mean” value is, setting by setting: (Paclitaxel + MIN-117 (1 mg/kg)) 5.433 g; (Paclitaxel + MIN-117 (3 mg/kg)) 6.858 g; (Paclitaxel + MIN-117 (10 mg/kg)) 7.832 g.

The record behind these values is US11766430B2, “Methods of using a phenoxypropylamine compound to treat pain” (Minerva Neurosciences, Inc., priority 2018, dated 2023).
